Measured values from patent publication US8716246B2, “Azuvirin peptides” (The Regents of the University of California, priority 2011, dated 2014).
Read-outs that look alike come from different tables or passages of the source. Bridge positions count the residues as written; N and C are the ends. Square brackets hold non-standard residues; d marks the D form. Peptide text beside a SMILES is read from it. * marks the point of attachment. Oic = O=C(O)[C@@H]1C[C@@H]2CCCC[C@@H]2N1; Cha = N[C@@H](CC1CCCCC1)C(=O)O; Tle = CC(C)(C)[C@H](N)C(=O)O; Nicotinoyl = O=C(c1cccnc1)*

Legend:
[1] = biological target: rhEphA2 (Homo sapiens, UniProt P29317); assay: SPR binding to immobilized rhEphA2 (Biacore 3000); parameters: purchased R&D Systems, Inc., Minneapolis, Minn
Experimental: (§1) Binding to selected ephrin receptors was measured by surface plasmon resonance on a Biacore3000 instrument. Commercially available ephrin receptors: EphA2, EphB2 and EphB4 (R&D Systems) were immobilized on a CM-5 chip by amine coupling and tested peptides were passed over a chip surface as analytes.
(§2) Binding studies. Binding studies were performed by surface plasmon resonance (SPR) on a BIAcore 3000 system (BiaCore AB, Piscataway, N.J.). BIAcore CM5 sensor chips were utilized in all experiments. Binding studies were performed in HBS-EP running buffer (pH=7.4) containing 10 mM HEPES, 150 mM NaCl, 3 mM EDTA, and 0.005% polysorbate 20. Commercially available ephrin receptors: EphA2, EphB2 and EphB4 (R&D Systems, Inc., Minneapolis, Minn.) were immobilized on a CM5 sensor chip using the amine coupling method. The chip was activated by mixing 400 mM N-ethyl-N-(3-dimethylaminopropyl)-carbodiimide hydrochloride and 100 mM N-hydroxysuccinimide. Residual reactive groups on the chip surface were blocked using 1.0 M ethanolamine/HCl (pH=8.5). The flow cell-1 chip, which served as a control, lacked immobilized protein but was treated with N-ethyl-N-(3-dimethylaminopropyl)-carbodiimide hydrochloride, N hydroxysuccinimide, and ethanolamine/HCl. Binding signals were corrected for nonspecific binding by subtracting the flow cell-1 signal (blank surface). To regenerate chip surfaces, bound ligands were removed with 10 mM HCl. Data were analyzed with BIAevaluation 4.1 software (Biacore, Piscataway, N.J.).

[2] = biological target: T1, rhEphB4 (Homo sapiens, UniProt P54760); assay: SPR binding to immobilized rhEphB4 (Biacore 3000)
T1 construct: purchased R&D Systems, Inc., Minneapolis, Minn
T1 sequence (P54760 16-987): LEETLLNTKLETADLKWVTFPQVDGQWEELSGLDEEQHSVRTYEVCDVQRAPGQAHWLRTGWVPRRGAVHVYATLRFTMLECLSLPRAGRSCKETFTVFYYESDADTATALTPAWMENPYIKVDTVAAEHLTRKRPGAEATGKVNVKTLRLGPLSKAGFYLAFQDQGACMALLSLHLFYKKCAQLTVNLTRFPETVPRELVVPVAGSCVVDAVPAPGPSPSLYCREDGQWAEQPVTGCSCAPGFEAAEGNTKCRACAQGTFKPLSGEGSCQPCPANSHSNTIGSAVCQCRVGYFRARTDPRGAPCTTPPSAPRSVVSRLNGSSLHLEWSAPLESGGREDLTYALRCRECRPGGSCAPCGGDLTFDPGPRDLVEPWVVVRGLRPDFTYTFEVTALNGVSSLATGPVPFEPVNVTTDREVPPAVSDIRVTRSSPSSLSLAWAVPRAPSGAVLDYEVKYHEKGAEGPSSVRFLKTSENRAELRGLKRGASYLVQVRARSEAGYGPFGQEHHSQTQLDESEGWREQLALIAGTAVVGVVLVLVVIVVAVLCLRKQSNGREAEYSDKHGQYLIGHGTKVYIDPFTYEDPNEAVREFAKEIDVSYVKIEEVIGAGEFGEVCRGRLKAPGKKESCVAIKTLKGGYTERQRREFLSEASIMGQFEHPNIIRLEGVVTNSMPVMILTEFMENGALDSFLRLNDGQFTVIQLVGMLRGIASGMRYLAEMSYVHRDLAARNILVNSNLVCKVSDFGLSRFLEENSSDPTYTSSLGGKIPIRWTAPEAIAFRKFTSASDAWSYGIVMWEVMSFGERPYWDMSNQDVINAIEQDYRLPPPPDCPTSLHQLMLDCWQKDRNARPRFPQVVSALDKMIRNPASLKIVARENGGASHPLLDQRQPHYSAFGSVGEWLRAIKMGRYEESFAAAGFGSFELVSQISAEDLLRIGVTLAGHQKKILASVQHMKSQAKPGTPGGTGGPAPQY
Experimental: as §1, §2

[3] = biological target: rhEphB2/Fc (Homo sapiens, UniProt P29323); assay: SPR binding to immobilized rhEphB2/Fc (Biacore 3000); parameters: Fc; purchased R&D Systems, Inc., Minneapolis, Minn
Experimental: as §1, §2

Structure (SMILES) | Kd [1] [nM] | Kd [2] [nM] | Kd [3] [nM] | Kd ([1]; SPR, averaged from at least 4 independent experiments, read-out: KD ± SEM, rhEphA2) [nM] | Kd ([2]; SPR, averaged from at least 4 independent experiments, read-out: KD ± SEM, rhEphB4) [nM] | Kd ([3]; SPR, averaged from at least 4 independent experiments, read-out: KD ± SEM, rhEphB2/Fc) [nM]
C[C@@H](O)[C@@H]1NC(=O)[C@H](CCCNC(=N)N)NC(=O)[C@H](Cc2c[nH]cn2)NC(=O)[C@@H](CCCNC(=N)N)NC(=O)[C@@H]2C[C@@H]3CCCC[C@@H]3N2C(=O)[C@H](CC2CCCCC2)NC(=O)[C@H](C(C)(C)C)NC(=O)[C@@H](NC(=O)[C@H](CC2CCCCC2)NC(=O)[C@H](CC2CCCCC2)NC(=O)[C@H](CCCCN)NC(=O)[C@@H](N)Cc2ccc(O)cc2)CSSC[C@@H](C(=O)N[C@H](CCCCN)C(N)=O)NC(=O)[C@H](CC2CCCCC2)NC1=O [AzV32] (H-YK[Cha][Cha]C[Tle][Cha][Oic][dR]HRT[Cha]C[dK]-NH2; disulfide 5-14) | 169 ± 29 | 197 ± 90 | 471 ± 160 | – | – | –
C[C@@H](O)[C@@H]1NC(=O)[C@H](CCCNC(=N)N)NC(=O)[C@H](Cc2c[nH]cn2)NC(=O)CNC(=O)[C@@H]2C[C@@H]3CCCC[C@@H]3N2C(=O)[C@H](CC2CCCCC2)NC(=O)[C@H](C(C)(C)C)NC(=O)[C@@H](NC(=O)[C@H](CC2CCCCC2)NC(=O)[C@H](CC2CCCCC2)NC(=O)[C@@H](CCCCN)NC(=O)[C@@H](N)Cc2ccc(O)cc2)CSSC[C@@H](C(=O)N[C@H](CCCCN)C(N)=O)NC(=O)[C@H](CC2CCCCC2)NC1=O [AzV34] (H-Y[dK][Cha][Cha]C[Tle][Cha][Oic]GHRT[Cha]C[dK]-NH2; disulfide 5-14) | 196 ± 21 | 135 ± 21 | 189 ± 21 | – | – | –
C[C@@H](O)[C@@H]1NC(=O)[C@H](CCCNC(=N)N)NC(=O)[C@H](Cc2c[nH]cn2)NC(=O)[C@@H](CCCNC(=N)N)NC(=O)[C@@H]2C[C@@H]3CCCC[C@@H]3N2C(=O)[C@H](CC2CCCCC2)NC(=O)[C@@H](CCCNC(=N)N)NC(=O)[C@@H](NC(=O)[C@H](CC2CCCCC2)NC(=O)[C@H](CC2CCCCC2)NC(=O)[C@H](CCCCN)NC(=O)[C@@H](N)Cc2ccc(O)cc2)CSSC[C@@H](C(=O)N[C@H](CCCCN)C(N)=O)NC(=O)[C@H](CC2CCCCC2)NC1=O [AzV35] (H-YK[Cha][Cha]C[dR][Cha][Oic][dR]HRT[Cha]C[dK]-NH2; disulfide 5-14) | 126 ± 22 | 73.5 ± 3.7 | 147 ± 19 | – | – | –
C[C@@H](O)[C@@H]1NC(=O)[C@H](CCCNC(=N)N)NC(=O)[C@H](Cc2c[nH]cn2)NC(=O)CNC(=O)[C@@H]2C[C@@H]3CCCC[C@@H]3N2C(=O)[C@H](CC2CCCCC2)NC(=O)[C@H](C(C)(C)C)NC(=O)[C@@H](NC(=O)[C@H](CC2CCCCC2)NC(=O)[C@H](CC2CCCCC2)NC(=O)[C@H](CCCCN)NC(=O)[C@@H](N)Cc2ccc(O)cc2)CSSC[C@@H](C(=O)N[C@@H](CCCCN)C(N)=O)NC(=O)[C@H](CC2CCCCC2)NC1=O [AzV31] (H-YK[Cha][Cha]C[Tle][Cha][Oic]GHRT[Cha]CK-NH2; disulfide 5-14; N-terminus assumed) | – | – | – | 196 ± 25 | 146 ± 14 | 192 ± 24
C[C@@H](O)[C@@H]1NC(=O)[C@H](CCCNC(=N)N)NC(=O)[C@H](Cc2c[nH]cn2)NC(=O)CNC(=O)[C@@H]2C[C@@H]3CCCC[C@@H]3N2C(=O)[C@H](CC2CCCCC2)NC(=O)[C@@H](CCCNC(=N)N)NC(=O)[C@@H](NC(=O)[C@H](CC2CCCCC2)NC(=O)[C@H](CC2CCCCC2)NC(=O)[C@H](CCCCN)NC(=O)[C@@H](N)Cc2ccc(O)cc2)CSSC[C@@H](C(=O)N[C@H](CCCCN)C(N)=O)NC(=O)[C@H](CC2CCCCC2)NC1=O [AzV33] (H-YK[Cha][Cha]C[dR][Cha][Oic]GHRT[Cha]C[dK]-NH2; disulfide 5-14) | 100 ± 21 | 78.6 ± 4.5 | 106 ± 12 | – | – | –
C[C@@H](O)[C@@H]1NC(=O)[C@H](CCCNC(=N)N)NC(=O)[C@H](Cc2c[nH]cn2)NC(=O)[C@@H](CCCNC(=N)N)NC(=O)[C@@H]2C[C@@H]3CCCC[C@@H]3N2C(=O)[C@H](CC2CCCCC2)NC(=O)[C@H](C(C)(C)C)NC(=O)[C@@H](NC(=O)[C@H](CC2CCCCC2)NC(=O)[C@H](CC2CCCCC2)NC(=O)[C@@H](CCCCNC(=O)c2cccnc2)NC(=O)[C@@H](N)Cc2ccc(O)cc2)CSSC[C@@H](C(=O)N[C@H](CCCCN)C(N)=O)NC(=O)[C@H](CC2CCCCC2)NC1=O [AzV36-Nic, YkNic-Cha-Cha-Cys-Tle-Cha-Oic-rHRT-Cha-Cys-k-CONH] (H-Y[dK](Nicotinoyl)[Cha][Cha]C[Tle][Cha][Oic][dR]HRT[Cha]C[dK]-NH2; disulfide 5-14) | 425 ± 226 | 138 ± 41 | 251 ± 120 | – | – | –
C[C@@H](O)[C@@H]1NC(=O)[C@H](CCCNC(=N)N)NC(=O)[C@H](Cc2c[nH]cn2)NC(=O)[C@@H](CCCNC(=N)N)NC(=O)[C@@H]2C[C@@H]3CCCC[C@@H]3N2C(=O)[C@H](CC2CCCCC2)NC(=O)[C@@H](CCCNC(=N)N)NC(=O)[C@@H](NC(=O)[C@H](CC2CCCCC2)NC(=O)[C@H](CC2CCCCC2)NC(=O)[C@@H](CCCCN)NC(=O)[C@@H](N)Cc2ccc(O)cc2)CSSC[C@@H](C(=O)N[C@H](CCCCN)C(N)=O)NC(=O)[C@H](CC2CCCCC2)NC1=O [AzV38] (H-Y[dK][Cha][Cha]C[dR][Cha][Oic][dR]HRT[Cha]C[dK]-NH2; disulfide 5-14) | 109 ± 3.5 | 46.3 ± 3.8 | 101 ± 2.7 | – | – | –
C[C@@H](O)[C@@H]1NC(=O)[C@H](CCCNC(=N)N)NC(=O)[C@H](Cc2c[nH]cn2)NC(=O)CNC(=O)[C@@H]2C[C@@H]3CCCC[C@@H]3N2C(=O)[C@H](CC2CCCCC2)NC(=O)[C@@H](CCCNC(=N)N)NC(=O)[C@@H](NC(=O)[C@H](CC2CCCCC2)NC(=O)[C@H](CC2CCCCC2)NC(=O)[C@@H](CCCCN)NC(=O)[C@@H](N)Cc2ccc(O)cc2)CSSC[C@@H](C(=O)N[C@H](CCCCN)C(N)=O)NC(=O)[C@H](CC2CCCCC2)NC1=O [AzV37] (H-Y[dK][Cha][Cha]C[dR][Cha][Oic]GHRT[Cha]C[dK]-NH2; disulfide 5-14) | 152 ± 38 | 76 ± 14 | 143 ± 37 | – | – | –
